The target in series [1] is T1, MPS1 (Homo sapiens, UniProt P33981).
T1 sequence (P33981 1-857): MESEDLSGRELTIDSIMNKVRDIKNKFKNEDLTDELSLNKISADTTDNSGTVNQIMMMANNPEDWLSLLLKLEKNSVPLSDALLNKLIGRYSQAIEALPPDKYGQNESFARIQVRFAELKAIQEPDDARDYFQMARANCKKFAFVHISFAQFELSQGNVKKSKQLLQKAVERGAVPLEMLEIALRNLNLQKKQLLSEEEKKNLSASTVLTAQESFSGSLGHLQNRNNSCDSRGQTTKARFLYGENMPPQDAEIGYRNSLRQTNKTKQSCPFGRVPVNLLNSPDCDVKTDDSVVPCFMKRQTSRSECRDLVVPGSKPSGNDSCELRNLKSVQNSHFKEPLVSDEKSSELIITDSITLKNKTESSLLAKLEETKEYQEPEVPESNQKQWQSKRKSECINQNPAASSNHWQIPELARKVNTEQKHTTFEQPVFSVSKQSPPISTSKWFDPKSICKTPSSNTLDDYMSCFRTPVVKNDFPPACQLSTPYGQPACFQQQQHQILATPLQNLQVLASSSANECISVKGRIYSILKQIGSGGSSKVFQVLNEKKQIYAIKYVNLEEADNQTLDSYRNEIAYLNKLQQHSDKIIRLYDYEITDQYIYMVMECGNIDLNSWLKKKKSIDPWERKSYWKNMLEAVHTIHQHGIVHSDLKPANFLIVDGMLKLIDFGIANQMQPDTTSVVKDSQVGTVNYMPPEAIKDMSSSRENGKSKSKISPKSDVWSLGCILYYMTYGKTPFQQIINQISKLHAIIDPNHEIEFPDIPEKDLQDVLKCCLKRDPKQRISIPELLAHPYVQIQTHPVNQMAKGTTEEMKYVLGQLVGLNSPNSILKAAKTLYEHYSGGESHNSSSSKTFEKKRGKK
The class given is biochemical. Particulars: 2,2-dimethylazetidine 48 compared with neopentyl-like analogue (47).

The nature of series [2]: Dog blood pharmacokinetics. The note with it: whole blood, iv, 1 mg/kg. In kind it is in vivo.
A short description of series [3]: Microsomal clearance, human liver microsomes. In kind it is in vitro ADME. Particulars: both, pH 7.4, Clint human.

Turning to `CCOc1cc(-c2nncn2C)ccc1Nc1ncc2cc(C)nc(N3CCC3(C)C)c2n1` [Compound 48, 8-(2,2-Dimethylazetidin-1-yl)-N-(2-ethoxy-4-(4-methyl-4H-1,2,4-triazol-3-yl)phenyl)-6-methylpyrido[3,4-d]pyrimidin-2-amine], the “fold higher IC50” value in series [1] was determined as 40 fold.
The clearance is the volume of plasma or blood freed of the substance per unit of time. Low readings indicate inefficient removal, high ones efficient removal. In turn, `CCOc1cc(-c2nncn2C)ccc1Nc1ncc2cc(C)nc(NCC(C)(C)C)c2n1` [Compound 36, N^2-(2-Ethoxy-4-(4-methyl-4H-1,2,4-triazol-3-yl)phenyl)-6-methyl-N^8-neopentylpyrido[3,4-d]pyrimidine-2,8-diamine] gave a clearance in series [2] of 1.2 mL/min/kg.
By microsomal CLint is commonly meant a measure of how fast metabolising enzymes remove a compound, apart from limits set by blood flow. Compound `COc1cc(-c2cnc(C)n2C)ccc1Nc1ncc2ccnc(NCC(C)(C)C)c2n1` [Compound 16, N^2-(4-(1,2-Dimethyl-1H-imidazol-5-yl)-2-methoxyphenyl)-N^8-neopentylpyrido[3,4-d]pyrimidine-2,8-diamine] had a microsomal CLint at 1 μM in series [3] of 79 µL/min/mg.
